6 compounds from patent US10336792B2, “Antimicrobial peptide dendrimers” (priority 2014, dated 2019) can be followed below.

Values after ≈ are worked out from the molar mass of the structure shown. Positions of bridges follow the written chain, without caps; N, C: chain ends. Residues, ends and D or L forms follow the SMILES beside them. Groups on a side chain read outwards from the residue. Chains are numbered I, II in the order given. *: point of attachment. Stearoyl = CCCCCCCCCCCCCCCCCC(=O)*; X1 = CCCCCCCCCCCCCCCCCCCCCCCC(=O)*; Lauroyl = CCCCCCCCCCCC(=O)*; Hexanoyl = CCCCCC(=O)*

Common to all, as to assay type: cell-based
In experiment [1] the test system is Bacillus subtilis (strain BR151). To be noted: strain BR151. In outline: (§1)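 Broth microdilution MIC in LB; overnight cultures diluted to OD600 0.001 and mixed 1:1 with ⅔-serially diluted samples (stock 1 mg mL^−1 in H2O), 37° C for 18-24 h. MTT (0.1%) added; MIC read by eye as lowest concentration inhibiting visible growth (yellow).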
The subject of experiment [2] is Escherichia coli (strain DH5α). To be noted: DH5α. In outline: as §1
Experiment [3] concerns Pseudomonas aeruginosa (strain PA01). The experiment is described as follows: microbe, parasite or virus in culture. To be noted: strain. An outline of the steps: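 Broth microdilution MIC against P. aeruginosa PAO1 in LB: peptides serially diluted by ⅔, bacteria added at OD600 0.001 and incubated 18–24 h at 37 °C. MTT added; MIC is the lowest concentration preventing visible growth.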

Experiment [4] has as its system Staphylococcus aureus (COL, MRSA reference strain). To be noted: COL, reference strain. The protocol:
Antimicrobial activity was assayed against P. aeruginosa PA01 (WT), P. aeruginosa PT1482 (A-), PT1485 (A-B-), PT1149 (A-B-C-algC), PT331 (Z61) (LPS mutants), P. aeruginosa PEJ2.6, PEJ9.1, ZEM1.A, ZEM9.A (clinical isolates from Université de Genève/Centre Médical Universitaire), Burkholderia cenocepacia (B. ceno), Staphylococcus aureus (S. aureus, MRSA strain) and Acinetobacter baumannii (A. baum) (clinical isolates from Université de Genève/Centre Médical Universitaire). To determine the minimal inhibitory concentration (MIC), microdilution broth method was used. A colony of bacteria was grown in MH-medium overnight at 37° C. The samples were prepared as stock solutions of 8 mg mL^−1 in H2O, diluted to the beginning concentration of 32, 64, 128 or 256 μg/mL in 300 μL MH-medium, added to the first well of 96-well microtiterplate (TPP, untreated) and diluted serially by ½. The concentration of the bacteria was quantified by measuring absorbance at 600 nm and diluted to OD600=0.022 in MH-medium. The sample solutions (150 μL) were mixed with 4 μL diluted bacterial suspension with a final inoculation of about of 5×10^5 CFU. The plates were incubated at 37° C. until satisfactory growth (˜18 h). For each test, two columns of the plate were kept for sterility control (SC, broth only) and growth control (GC, broth with bacterial inoculums, no antibiotics). The minimal inhibitory concentration (MIC) was defined as the lowest concentration of the antimicrobial substance (peptide dendrimer) that inhibited visible growth of the tested bacteria with the unaided eye. For microbiological study Polymyxin was used as references.
Ten of the most promising compounds (FIG. 5) were tested for their efficiency against four clinical isolates of P. aeruginosa (ZEM9.A, ZEM1.A, PEJ2.6, PEJ9.1), one S. aureus (COL, MRSA reference strain) and one A. baumannii strain. For the experiments in Genève the peptide dendrimers and reference compounds (polymyxin) were dissolved in PBS and the assay was carried out in Müller-Hinton (MH) broth with a two-fold dilution.

As for `CCCCCCCCCCCC(=O)NCCCC[C@H](NC(=O)[C@H](CC(C)C)NC(=O)[C@H](CCCCN)NC(=O)[C@H](CCCCNC(=O)[C@H](CC(C)C)NC(=O)[C@H](CCCCN)NC(=O)[C@H](CCCCNC(=O)[C@H](CC(C)C)NC(=O)[C@@H](N)CCCCN)NC(=O)[C@H](CC(C)C)NC(=O)[C@@H](N)CCCCN)NC(=O)[C@H](CC(C)C)NC(=O)[C@H](CCCCN)NC(=O)[C@H](CCCCNC(=O)[C@H](CC(C)C)NC(=O)[C@@H](N)CCCCN)NC(=O)[C@H](CC(C)C)NC(=O)[C@@H](N)CCCCN)C(N)=O` [MSt-263, (KL)4(KKL)2(KKLKC12)] (I: H-KLK([Leu-Lys])KLKKLK(Lauroyl)-NH2 / II: H-KLK([Leu-Lys])KL; amide I:6-II:C), the “MIC B. subtilis BR151” value in experiment [1] stood at 2 µg/mL (≈ 0.833 µM). Besides, the “MIC E. coli DH5α” value in experiment [2] was found to be 1 µg/mL (≈ 0.416 µM). Moreover, in experiment [3], the “MIC P. aeruginosa PAO1” value is 1 µg/mL (≈ 0.416 µM). Besides, in experiment [4], the “MIC S. aureus (COL, MRSA reference strain)” value was “below 20 μg/mL”.

Regarding `CCCCCCCCCCCCCCCCCC(=O)NCCCC[C@H](NC(=O)[C@H](CC(C)C)NC(=O)[C@H](CCCCN)NC(=O)[C@H](CCCCNC(=O)[C@H](CC(C)C)NC(=O)[C@H](CCCCN)NC(=O)[C@H](CCCCNC(=O)[C@H](CC(C)C)NC(=O)[C@H](CCCCN)NC(=O)[C@H](CCCCNC(=O)[C@H](CC(C)C)NC(=O)[C@@H](N)CCCCN)NC(=O)[C@H](CC(C)C)NC(=O)[C@@H](N)CCCCN)NC(=O)[C@H](CC(C)C)NC(=O)[C@H](CCCCN)NC(=O)[C@H](CCCCNC(=O)[C@H](CC(C)C)NC(=O)[C@@H](N)CCCCN)NC(=O)[C@H](CC(C)C)NC(=O)[C@@H](N)CCCCN)NC(=O)[C@H](CC(C)C)NC(=O)[C@H](CCCCN)NC(=O)[C@H](CCCCNC(=O)[C@H](CC(C)C)NC(=O)[C@H](CCCCN)NC(=O)[C@H](CCCCNC(=O)[C@H](CC(C)C)NC(=O)[C@@H](N)CCCCN)NC(=O)[C@H](CC(C)C)NC(=O)[C@@H](N)CCCCN)NC(=O)[C@H](CC(C)C)NC(=O)[C@H](CCCCN)NC(=O)[C@H](CCCCNC(=O)[C@H](CC(C)C)NC(=O)[C@@H](N)CCCCN)NC(=O)[C@H](CC(C)C)NC(=O)[C@@H](N)CCCCN)C(N)=O` [MSt-284, (KL)8(KKL)4(KKL)2(KKLKC18)] (I: H-KLK([Leu-Lys])KLKKLKKLK(Stearoyl)-NH2 / II: H-KLK([Leu-Lys])KLKKL / III: H-KLK([Leu-Lys])KL / IV: H-KLK([Leu-Lys])KL; amide I:6-IV:C, I:9-II:C, II:6-III:C), the “MIC B. subtilis BR151” value in experiment [1] worked out at 6 µg/mL (≈ 1.22 µM). In addition, the “MIC E. coli DH5α” value in experiment [2] came to 3 µg/mL (≈ 0.609 µM). The “MIC P. aeruginosa PAO1” value in experiment [3] is 9 µg/mL (≈ 1.83 µM).

Turning to `CCCCCCCCCCCCCCCCCCCCCCCC(=O)NCCCC[C@H](NC(=O)[C@H](CC(C)C)NC(=O)[C@H](CCCCN)NC(=O)[C@H](CCCCNC(=O)[C@H](CC(C)C)NC(=O)[C@H](CCCCN)NC(=O)[C@H](CCCCNC(=O)[C@H](CC(C)C)NC(=O)[C@H](CCCCN)NC(=O)[C@H](CCCCNC(=O)[C@H](CC(C)C)NC(=O)[C@@H](N)CCCCN)NC(=O)[C@H](CC(C)C)NC(=O)[C@@H](N)CCCCN)NC(=O)[C@H](CC(C)C)NC(=O)[C@H](CCCCN)NC(=O)[C@H](CCCCNC(=O)[C@H](CC(C)C)NC(=O)[C@@H](N)CCCCN)NC(=O)[C@H](CC(C)C)NC(=O)[C@@H](N)CCCCN)NC(=O)[C@H](CC(C)C)NC(=O)[C@H](CCCCN)NC(=O)[C@H](CCCCNC(=O)[C@H](CC(C)C)NC(=O)[C@H](CCCCN)NC(=O)[C@H](CCCCNC(=O)[C@H](CC(C)C)NC(=O)[C@@H](N)CCCCN)NC(=O)[C@H](CC(C)C)NC(=O)[C@@H](N)CCCCN)NC(=O)[C@H](CC(C)C)NC(=O)[C@H](CCCCN)NC(=O)[C@H](CCCCNC(=O)[C@H](CC(C)C)NC(=O)[C@@H](N)CCCCN)NC(=O)[C@H](CC(C)C)NC(=O)[C@@H](N)CCCCN)C(N)=O` [MSt-285, (KL)8(KKL)4(KKL)2(KKLKC24)] (I: H-KLK([Leu-Lys])KLKKLKKLK(X1)-NH2 / II: H-KLK([Leu-Lys])KLKKL / III: H-KLK([Leu-Lys])KL / IV: H-KLK([Leu-Lys])KL; amide I:6-IV:C, I:9-II:C, II:6-III:C), the “MIC B. subtilis BR151” value in experiment [1] is 16 µg/mL (≈ 3.19 µM). Further, the “MIC E. coli DH5α” value in experiment [2] was 5 µg/mL (≈ 0.997 µM). Besides, the “MIC P. aeruginosa PAO1” value in experiment [3] was determined as 12 µg/mL (≈ 2.39 µM).

Regarding `CCCCCCCCCCCCCCCCCC(=O)NCCCC[C@H](NC(=O)[C@H](CC(C)C)NC(=O)[C@H](CCCCN)NC(=O)[C@H](CCCCNC(=O)[C@H](CC(C)C)NC(=O)[C@H](CCCCN)NC(=O)[C@H](CCCCNC(=O)[C@H](CC(C)C)NC(=O)[C@@H](N)CCCCN)NC(=O)[C@H](CC(C)C)NC(=O)[C@@H](N)CCCCN)NC(=O)[C@H](CC(C)C)NC(=O)[C@H](CCCCN)NC(=O)[C@H](CCCCNC(=O)[C@H](CC(C)C)NC(=O)[C@@H](N)CCCCN)NC(=O)[C@H](CC(C)C)NC(=O)[C@@H](N)CCCCN)C(N)=O` [MSt-286, (KL)4(KKL)2(KKLKC18)] (I: H-KLK([Leu-Lys])KLKKLK(Stearoyl)-NH2 / II: H-KLK([Leu-Lys])KL; amide I:6-II:C; N-terminus assumed), the “MIC B. subtilis BR151” value in experiment [1] came out at 4 µg/mL (≈ 1.61 µM). Also, in experiment [2], the “MIC E. coli DH5α” value amounted to 3 µg/mL (≈ 1.21 µM). Further, the “MIC P. aeruginosa PAO1” value in experiment [3] is 4 µg/mL (≈ 1.61 µM).

Take `CCCCCC(=O)N[C@@H](CCCCN)C(=O)N[C@@H](CC(C)C)C(=O)NCCCC[C@H](NC(=O)[C@H](CC(C)C)NC(=O)[C@H](CCCCN)NC(=O)CCCCC)C(=O)N[C@@H](CCCCN)C(=O)N[C@@H](CC(C)C)C(=O)NCCCC[C@H](NC(=O)[C@H](CC(C)C)NC(=O)[C@H](CCCCN)NC(=O)[C@H](CCCCNC(=O)[C@H](CC(C)C)NC(=O)[C@H](CCCCN)NC(=O)CCCCC)NC(=O)[C@H](CC(C)C)NC(=O)[C@H](CCCCN)NC(=O)CCCCC)C(=O)N[C@@H](CCCCN)C(=O)N[C@@H](CC(C)C)C(=O)NCCCC[C@H](NC(=O)[C@H](CC(C)C)NC(=O)[C@H](CCCCN)NC(=O)[C@H](CCCCNC(=O)[C@H](CC(C)C)NC(=O)[C@H](CCCCN)NC(=O)[C@H](CCCCNC(=O)[C@H](CC(C)C)NC(=O)[C@H](CCCCN)NC(=O)CCCCC)NC(=O)[C@H](CC(C)C)NC(=O)[C@H](CCCCN)NC(=O)CCCCC)NC(=O)[C@H](CC(C)C)NC(=O)[C@H](CCCCN)NC(=O)[C@H](CCCCNC(=O)[C@H](CC(C)C)NC(=O)[C@H](CCCCN)NC(=O)CCCCC)NC(=O)[C@H](CC(C)C)NC(=O)[C@H](CCCCN)NC(=O)CCCCC)C(=O)N[C@@H](CCCCN)C(=O)N[C@@H](CC(C)C)C(N)=O` [MSt-288, (C6KL)8(KKL)4(KKL)2(KKL)] (I: Hexanoyl-KLK([Leu-Lys-Hexanoyl])KLKKLKKL-NH2 / II: Hexanoyl-KLK([Leu-Lys-Hexanoyl])KLKKL / III: Hexanoyl-KLK([Leu-Lys-Hexanoyl])KL / IV: Hexanoyl-KLK([Leu-Lys-Hexanoyl])KL; amide I:6-IV:C, I:9-II:C, II:6-III:C): in experiment [1], the “MIC B. subtilis BR151” value was determined as 1 µg/mL (≈ 0.188 µM). Besides, the “MIC E. coli DH5α” value in experiment [2] is 5 µg/mL (≈ 0.94 µM). The “MIC P. aeruginosa PAO1” value in experiment [3] is 2 µg/mL (≈ 0.376 µM).

Take `CCCCCC(=O)N[C@@H](CCCCN)C(=O)N[C@@H](CC(C)C)C(=O)NCCCC[C@H](NC(=O)[C@H](CC(C)C)NC(=O)[C@H](CCCCN)NC(=O)CCCCC)C(=O)N[C@@H](CCCCN)C(=O)N[C@@H](CC(C)C)C(=O)NCCCC[C@H](NC(=O)[C@H](CC(C)C)NC(=O)[C@H](CCCCN)NC(=O)[C@H](CCCCNC(=O)[C@H](CC(C)C)NC(=O)[C@H](CCCCN)NC(=O)CCCCC)NC(=O)[C@H](CC(C)C)NC(=O)[C@H](CCCCN)NC(=O)CCCCC)C(=O)N[C@@H](CCCCN)C(=O)N[C@@H](CC(C)C)C(N)=O` [MSt-290, (C6KL)4(KKL)2(KKL)] (I: Hexanoyl-KLK([Leu-Lys-Hexanoyl])KLKKL-NH2 / II: Hexanoyl-KLK([Leu-Lys-Hexanoyl])KL; amide I:6-II:C): in experiment [1], the “MIC B. subtilis BR151” value was determined as 1 µg/mL (≈ 0.403 µM). The “MIC E. coli DH5α” value in experiment [2] amounted to 1 µg/mL (≈ 0.403 µM). Besides, in experiment [3], the “MIC P. aeruginosa PAO1” value worked out at 2 µg/mL (≈ 0.805 µM).
